Reference: patent publication US20240025899A1, “TRIHETEROCYCLIC DERIVATIVE, AND PHARMACEUTICAL COMPOSITION AND APPLICATION THEREOF” (SHANGHAI DE NOVO PHARMATECH CO., LTD., priority 2020, published 2024)
pIC50: −log10 of the molar value. Counter-ions that a name gives are not always drawn.

Columns and labels:
[1] = test system: LOVO human colon cancer cell line; test: Cell proliferation assay (Cell titer glo); type: cell-based; conditions: LOVO cells, 72 hours
Method: In the present disclosure, cell assays were used to evaluate the biological activity of compounds. LOVO (Nanjing Cobioer), a human colon cancer cell line, was cultured in a Dulbecco's Modified Eagle's medium 96-well plate, supplemented with 10% fetal bovine serum and 1% P/S, and the culture environment was 37° C. and 5% CO2. Compound concentrations were ranged from 4.5 nM to 30 μM. The stock solution of the test compound was dissolved in DMSO and added to the medium at the indicated concentration, and incubated for 72 hours. Negative control cells were treated with vehicle only. In some experiments, known ATR inhibitors were added as positive controls. Cell viability was evaluated using the Cell titer glo kit (CTG, Promega) under the instructions of the product specification. The data were analyzed using Graphpad software, and IC50 values and compound fitting curves were obtained (Table 2).

CYP2C19 = CYP2C19 (Homo sapiens (Human), UniProt P33261); test: Cytochrome oxidase P450 inhibition study, CYP2C19; type: in vitro ADME; conditions: human liver microsomes; read-out: IC50 2C19
Method: LC-MS/MS methods were used to evaluate the inhibitory effects of compounds on CYP2C19, 2D6 and 3A4 subtypes. In this method, the test compound was mixed with a solution of human liver microsomes containing CYP model substrates, and incubated together under the addition of NADPH, then the inhibitory IC50 of the compound on CYP2C19, 2D6 and 3A4 was calculated by measuring the amount of metabolites of the model substrate in the reaction solution. The specific experimental method is as follows:
Compounds to be tested were prepared as stock solutions at 10 mM concentration with DMSO and then diluted to 4 mM with acetonitrile solution. At the same time, the corresponding reference inhibitor solutions for CYP subtypes were prepared, for example, the reference inhibitor was Ketoconazole, then these two compounds were prepared separately ([…] of inhibitor DMSO stock solution+[…] of acetonitrile), and the samples prepared under the above conditions were at 400× concentration. Then, the above solution was 3-fold diluted with DMSO/acetonitrile mixture (v/v: 40/60) to prepare the final test solution, and seven concentration points were set for each test compound, and the initial test final concentration was 10 μM. […]
[…] of human liver microsome solution (0.2 mg/mL) was added to each well containing the test compound in the 96-well plate, and then 2 mL of the final test sample of test compounds prepared by serial dilution as described above was added thereto; for each well corresponding to the reference inhibitors, […] of human liver microsome solution (0.2 mg/mL) and 1 mL of the final test sample were added. […] The inhibition rate was determined by comparing the amount of model substrate metabolites at each test concentration without test substance addition, in the GraphPad Prism 5.0 software, the logarithm of the test concentration was used as the abscissa and the inhibition rate was used as the ordinate to perform a linear regression (Sigmoidal (non-linear) dose-response model) analysis to obtain the IC50 value of the test compound.

hERG channel = hERG channel (Homo sapiens (Human), UniProt Q12809); test: Cardiac safety evaluation, hERG study (QPatch whole-cell recording); type: cell-based; conditions: CHO cell line expressing hERG channel
Method: In this experiment, a CHO cell line stably transfected with hERG cDNA and expressing p15 hERG channel was used. Cells were incubated at 37° C. in a humidified incubator containing 5% CO2 in medium (Ham's F12, 10% v/v FBS, 100 μg/mL hygromycin B, 100 μg/mL geneticin) (from Invitrogen). Cells were grown under the above conditions and reached approximately 80-90% of the confluency. Cells were treated with Detachin (Genlantis) for 3 to 5 minutes. The medium was titrated 15 to 20 times at 37° C., and then the cells were resuspended in CHO-S-SFM II medium (serum-free medium, Invitrogen) buffered with HEPES (25 mM). Cells used for QPatch studies must meet the following criteria: Most suspension cells should be single and isolated under microscopy; viability should be greater than 95%; cell density in the final suspension should be in the range of 3 to 8×10^6 cells/mL before application to the QPatch stir chamber. Cells meeting the above conditions can be used for recordings within 4 hours of harvest.
Test compounds were made into 10 mM DMSO stock solutions. Six doses (30, 10, 3, 1, 0.3 and 0.1 μM) were selected to obtain the fitted curves and IC50. The final DMSO concentration was 0.1% or less. The IC50 of the positive control cisapride was assessed at doses of 3, 1, 0.3, 0.1, 0.03 and 0.01 μM, respectively. Composition of […] for electrophysiological recordings: CaCl2 2 mM, MgCl2 1 mM, KCl 4 mM, NaCl 145 mM, Glucose 10 mM, HEPES 10 mM, pH 7.4 (NaOH), composition of external solution: CaCl2 […], MgCl2 1.75 mM, KCl 120 mM, HEPES 10 mM, EGTA 5 mM, Na-ATP 4 mM, pH 7.25 (KOH) (all reagents used were from sigma).
Whole-cell recordings were performed using automated QPatch (Sophion Biosciences, Denmark). Cells were recorded for 120 s to assess current stability. The above voltages were then applied to the cells every 15 s throughout the procedure. […]
The data were analyzed with Sophion Assay software (determination software V5.0), Microsoft Excel and Graphpad Prism 5.0 to obtain IC50 of compounds.

Sequence of CYP2C19 (P33261 whole entry): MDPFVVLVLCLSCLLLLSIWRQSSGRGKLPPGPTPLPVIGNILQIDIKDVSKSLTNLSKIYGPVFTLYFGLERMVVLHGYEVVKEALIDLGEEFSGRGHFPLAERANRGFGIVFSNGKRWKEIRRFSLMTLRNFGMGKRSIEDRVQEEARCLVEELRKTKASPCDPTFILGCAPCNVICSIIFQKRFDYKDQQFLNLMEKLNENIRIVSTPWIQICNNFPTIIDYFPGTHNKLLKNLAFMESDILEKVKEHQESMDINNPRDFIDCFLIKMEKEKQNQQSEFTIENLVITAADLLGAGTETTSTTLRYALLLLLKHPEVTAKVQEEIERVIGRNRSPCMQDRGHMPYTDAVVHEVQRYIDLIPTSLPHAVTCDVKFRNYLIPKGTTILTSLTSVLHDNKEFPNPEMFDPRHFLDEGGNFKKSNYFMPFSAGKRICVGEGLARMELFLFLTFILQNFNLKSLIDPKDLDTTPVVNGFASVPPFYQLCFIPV
Sequence of hERG channel (Q12809 whole entry): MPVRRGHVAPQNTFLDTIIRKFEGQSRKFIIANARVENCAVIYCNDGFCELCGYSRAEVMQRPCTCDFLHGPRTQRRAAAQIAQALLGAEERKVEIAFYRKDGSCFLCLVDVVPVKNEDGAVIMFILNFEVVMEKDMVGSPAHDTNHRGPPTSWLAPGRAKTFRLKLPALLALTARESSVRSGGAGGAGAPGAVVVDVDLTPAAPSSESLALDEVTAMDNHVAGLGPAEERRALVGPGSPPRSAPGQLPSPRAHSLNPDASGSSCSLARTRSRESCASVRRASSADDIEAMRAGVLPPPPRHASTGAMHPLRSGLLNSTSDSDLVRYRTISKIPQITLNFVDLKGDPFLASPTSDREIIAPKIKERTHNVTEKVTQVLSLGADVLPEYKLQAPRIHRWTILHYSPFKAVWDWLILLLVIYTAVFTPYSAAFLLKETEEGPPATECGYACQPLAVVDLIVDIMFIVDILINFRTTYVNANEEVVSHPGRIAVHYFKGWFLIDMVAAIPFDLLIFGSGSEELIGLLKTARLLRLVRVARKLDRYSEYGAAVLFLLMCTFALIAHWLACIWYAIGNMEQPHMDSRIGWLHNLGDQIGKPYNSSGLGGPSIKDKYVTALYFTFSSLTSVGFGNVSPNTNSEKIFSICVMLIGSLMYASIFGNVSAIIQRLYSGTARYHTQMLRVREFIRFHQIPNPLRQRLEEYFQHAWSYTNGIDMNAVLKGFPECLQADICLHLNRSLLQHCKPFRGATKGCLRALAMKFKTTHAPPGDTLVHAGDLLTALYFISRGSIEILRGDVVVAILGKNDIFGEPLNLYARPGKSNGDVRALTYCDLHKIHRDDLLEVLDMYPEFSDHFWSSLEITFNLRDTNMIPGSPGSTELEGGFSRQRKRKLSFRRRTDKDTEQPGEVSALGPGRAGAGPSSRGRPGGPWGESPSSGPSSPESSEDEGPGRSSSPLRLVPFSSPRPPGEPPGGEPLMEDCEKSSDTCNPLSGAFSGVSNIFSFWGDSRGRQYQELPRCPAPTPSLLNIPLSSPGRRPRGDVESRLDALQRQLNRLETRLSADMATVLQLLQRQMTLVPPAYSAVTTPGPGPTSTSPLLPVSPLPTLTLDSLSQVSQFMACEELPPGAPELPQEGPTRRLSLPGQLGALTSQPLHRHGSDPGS

Row | Structure (SMILES) | pIC50 [1] | pIC50 (CYP2C19) | pIC50 (hERG channel)
1 | C[C@@H]1COCCN1c1nc2c(cnn2-c2cc[nH]n2)c2c1ccn2S(C)(=O)=O [Compound 1, (R)-3-methyl-4-(1-(methylsulfonyl)-6-(1H-pyrazol-3-yl)-1,6-dihydropyrazolo[3,4-b]pyrrolo[2,3-d]pyridin-4-yl)morpholine trifluoroacetate] | 7.53 | < 5.00 | < 4.52
2 | C[C@@H]1COCCN1c1nc2c(cnn2-c2cc[nH]n2)c2c1CCN2S(C)(=O)=O [Compound 2, (R)-3-methyl-4-(1-(methylsulfonyl)-6-(1H-pyrazol-3-yl)-1,2,3,6-tetrahydropyrazolo[3,4-b]pyrrolo[2,3-d]pyridin-4-yl)morpholine trifluoroacetate] | 7.43 | < 5.00 | < 4.52
